Results published in patent US20060205636A1, “Oxytocin as cardiomyogenesis inducer and uses thereof” (priority 2002, published 2006).
Entries after “also recorded” stand apart in the source; their conditions may differ.

What was measured:
[1] = system: P19 cells; assay: Cardiac differentiation of P19 cell aggregates, scored by beating cell colonies; assay type: cell-based, mouse; conditions: for day by which beating cell colonies were present in all 24 independently growing cultures: aggregates treated 4 days with 10^−7 M OT or 0.5% DMSO, 24-well plate
Source text: P19 cells were propagated and differentiated according to the procedures of Rudnicki and McBurney (28), with minor modifications. Undifferentiated cells were propagated in complete medium containing α-modified Eagle's minimal essential medium (α-MEM; GIBCO-BRL Burlington, Ontario, Canada) supplemented with 2.5% heat-inactivated fetal bovine serum, 7.5% heat-inactivated donor bovine serum (Cansera International, Rexdale, Ontario, Canada), and the antibiotics (GIBCO-BRL) penicillin G (50 U/ml) and streptomycin (50 μg/ml). The cultures were maintained at 37° C. in a humidified atmosphere of 5% CO2 and passaged every 2 days. The general protocol used for differentiation of P19 cells is depicted in FIG. 1.
(§1) Briefly, 0.25×10^6 cells were allowed to aggregate for 4 days in non-adhesive bacteriological grade petri dishes (6-cm diameter) containing 5 ml complete medium, in the presence of 0.5% (v/v) DMSO (Sigma Chemical Co., St. Louis, Mo.). At day 2 of aggregation, the inducing culture medium was replenished. At day 4, aggregates were transferred to tissue culture grade vessels (10-cm diameter dishes or 24/48-well plates), and cultured in complete medium in the absence of differentiation-inducing agent. Aggregation was also done in the absence of DMSO, and in the presence of 10^−7 M OT and/or 10^−7 OTA ([d(CH2)5^1,Tyr(Me)^2,Thr^4,Orn^8,Tyr-NH2^9]-vasotocin), both from Peninsula Laboratories Inc. (San Carlos, Calif.). The cell populations were analyzed at days 10-14 of the entire differentiation protocol, at a time cardiac cells normally beat synchronously.
P19 cells were subjected to the cardiac differentiation protocol depicted in Example 1, except that different concentrations of OT were used during the four days of aggregation. At day 4, aggregates were transferred to 24-well plates and scored for the appearance of beating cell colonies. In addition, cells were collected at day 14 for analysis of OTR or OT expression by RT-PCR. Cell aggregates were also treated with RA and/or T3.

[2] = system: sarcomeric MHC and DHPR-alphal; assay: Immunocytofluorescence of cardiac muscle markers in P19 cells; assay type: cell-based, mouse; conditions: for MHC and DHPR-alphal immunoreactive foci: aggregates treated day 0-4, stained day 14
Experimental: (§2) For immunocytofluorescence studies, cells were grown onto glass coverslips coated with 0.1% gelatin. They were then fixed by 20-min incubation in PBS containing 4% paraformaldehyde, rinsed in PBS and stored at 4° C. in this buffer until used. All subsequent steps of permeabilization, washing and incubation with antibodies were performed at room temperature. Fixed cells were permeabilized for 10 min in PBS containing 0.005% saponin, blocked for 60 min in PBS-BSA-saponin (PBS containing 1% bovine serum albumin and 0.005% saponin), incubated for 45 min with the primary antibody diluted 1/50 and for 45 min with a fluorescein-conjugated swine anti-goat IgG antibody (Biosource International, Camarillo, Calif.) diluted 1/1000. PBS-BSA-saponin was used for washing between incubations and antibodies were diluted in the same buffer but containing 1.5% normal swine serum (Jackson Immuno Research Laboratories Inc., West Grove, Pa.). Coverslips were mounted in PBS containing 50% glycerol, and immediately examined under the microscope. The primary antibodies were all from Santa Cruz Biotechnology, Inc. (Santa Cruz, Calif.) and produced in goat: antibody C-20 against OT receptor (OTR), antibody K-16 against sarcomeric myosin heavy chain (MHC), and antibody N-19 against dihydropyridine receptor-alphal (DHPR-alphal).

[3] = system: ANP mRNA; assay: RT-PCR analysis of ANP gene transcript in P19 cultures; assay type: cell-based, mouse; conditions: for ANP mRNA level compared to undifferentiated cells: day 14 of differentiation
Experimental: Total cellular RNA was extracted with TRIzol® Reagent (Invitrogen Life Technologies, Burlington, Ontario, Canada), and poly(A)^+mRNA was affinity purified from 200 μg of total RNA onto Oligotex® mRNA columns (Qiagen, Mississauga, Ontario, Canada), as per the manufacturers' instructions. […] Invitrogen). First-strand cDNA (5 μl) was then used for PCR amplification with OTR, ANP or GAPDH exon-specific oligonucleotide primers in a Robocycler Gradient 40 thermocycler (Stratagene, La Jolla, Calif.). Sequences of mouse OTR and ANP genes have been described (26, 34). Conditions for RT-PCR analysis of mouse OTR were adapted from Wagner et al. (6, 7). For all PCR studies the number of cycles used was within the linear range of amplification. The OTR sense and antisense primers were respectively the 22-bp [NT] ID NO:9) and the 23-bp [NT] ID NO:10). […] The ANP antisense and sense primers were respectively the 24-bp [NT] ID NO:11) and the 20-bp [NT] ID NO:12). […] The amplification of GAPDH mRNA, a constitutively and ubiquitously expressed gene, served as an internal standard for RT-PCR analysis. The 23-bp antisense primer [NT] ID NO:13) and the 23-bp sense primer [NT] ID NO:14) were used.

[4] = system: OTR; assay: OTR expression in P19 cells (immunocytochemistry, Western blot, RT-PCR); assay type: cell-based, mouse; conditions: for OTR expression (protein and mRNA) after treatment: DMSO 0.5%, OT 10^−7 M or OTA 10^−7 M alone; for early OTR induction (RT-PCR): second day of differentiation protocol, preliminary results
Experimental: as §2
Total cellular RNA was extracted with TRIzol® Reagent (Invitrogen Life Technologies, Burlington, Ontario, Canada), and poly(A)^+mRNA was affinity purified from 200 μg of total RNA onto Oligotex® mRNA columns (Qiagen, Mississauga, Ontario, Canada), as per the manufacturers' instructions. First-strand cDNA was synthesized in a final volume of 40 μl containing first-strand buffer, 3 μg of cellular RNA, 4 μl of hexanucleotide primers (Amersham-Pharmacia, Baie d'Urfé, Quebec, Canada), and avian myeloblastosis virus reverse transcriptase (12 units/μg RNA; Invitrogen). First-strand cDNA (5 μl) was then used for PCR amplification with OTR, ANP or GAPDH exon-specific oligonucleotide primers in a Robocycler Gradient 40 thermocycler (Stratagene, La Jolla, Calif.). Sequences of mouse OTR and ANP genes have been described (26, 34). Conditions for RT-PCR analysis of mouse OTR were adapted from Wagner et al. (6, 7). For all PCR studies the number of cycles used was within the linear range of amplification. The OTR sense and antisense primers were respectively the 22-bp 5′-[…]-3′ (SEQ ID NO:9) and the 23-bp 5′-[…]-3′ (SEQ ID NO:10). Amplification was performed over 32 cycles, each involving 1 min at 94° C., 1.5 min at 62° C. and 1.5 min at 72° C., and was terminated by a 5-min final extension at 72° C. The ANP antisense and sense primers were respectively the 24-bp 5′-[…]-3′ (SEQ ID NO:11) and the 20-bp 5′-[…]-3′ (SEQ ID NO:12). Amplification was performed over 25-30 cycles, each involving 1 min at 94° C., 1 min at 65° C. and 3 min at 72° C., and was terminated by a 5-min final extension at 72° C. The amplification of GAPDH mRNA, a constitutively and ubiquitously expressed gene, served as an internal standard for RT-PCR analysis. The 23-bp antisense primer 5′-[…]-3′ (SEQ ID NO:13) and the 23-bp sense primer 5′-[…]-3′ (SEQ ID NO:14) were used. Amplification was performed over 23 cycles, each involving 1 min at 94° C., 1.5 min at 59° C. and 2 min at 72° C.
Cells were collected by scraping, homogenized in sucrose buffer (20 mM Hepes/Tris, pH 7.4, containing 250 mM sucrose and 20 μg/ml of the protease inhibitor phenylmethylsulfonyl fluoride), then centrifuged at 3000 g for 10 min at 4° C. to remove debris. The supernatants were centrifuged at 100 000 g for 45 min at 4° C., and the pellets were resuspended in sucrose buffer for analysis of protein content by a modified Bradford assay (30). […]

[5] = system: P19 cells; assay: OT production by induced P19 cells (RIA); assay type: cell-based, mouse; conditions: day 14, 4 h in serum-free medium
Experimental: P19 cells induced with DMSO or OT were cultured until day 14 in absence of inducer. Cells were washed carefully with PBS and incubated for 4 h in serum-free α-MEM supplemented with protease inhibiors (aprotinin, 30 μg/mL and soybean trypsin inhibitor (SBTI), 100 μg/mL). Cells and media were collected, extracted on Sep-Pak C18-cartridges (Waters Canada, Mississauga, Ontario), lyophilized, resuspended in a minimal volume of α-MEM and assayed by RIA as described (8). RIA was also done on undiluted serum combination used for P19 cell culture (1 part of fetal bovine serum and 3 parts of donor bovine serum).

[6] = system: P19 cells; assay: Mean diameter of P19 cell aggregates; assay type: cell-based, mouse; conditions: data not shown
Experimental: as §1

[7] = system: P19 cells; conditions: cited from earlier work
[8] = target: oxytocin receptor (OTR) of P19 mouse embryonal carcinoma cells (mouse) (UniProt P97926); assay: cell-based or functional assay; conditions: scale: cultures with beating colonies
oxytocin receptor (OTR) of P19 mouse embryonal carcinoma cells (mouse), sequence (P97926 whole entry): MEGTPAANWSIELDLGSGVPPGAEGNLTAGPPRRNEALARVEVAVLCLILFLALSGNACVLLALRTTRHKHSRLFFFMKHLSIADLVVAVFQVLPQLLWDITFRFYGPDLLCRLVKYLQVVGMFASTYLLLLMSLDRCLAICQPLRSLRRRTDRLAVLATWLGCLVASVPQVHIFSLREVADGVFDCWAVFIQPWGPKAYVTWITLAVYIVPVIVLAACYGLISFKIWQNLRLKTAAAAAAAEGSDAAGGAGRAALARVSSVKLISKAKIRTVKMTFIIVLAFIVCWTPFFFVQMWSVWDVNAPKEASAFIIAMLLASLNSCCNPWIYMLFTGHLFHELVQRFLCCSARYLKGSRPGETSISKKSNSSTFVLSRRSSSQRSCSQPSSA

[9] = system: P19 cells; assay: Rhodamine123 retention in P19 cultures; assay type: cell-based, mouse; conditions: day 10 of differentiation, p<0.001
Experimental: For morphological examination, cells were grown directly onto the plastic surface of tissue culture vessels. For staining with rhodamine^123 (Sigma), day-4 aggregates were distributed in 24-well culture plates and grown until day 8. Then, dye was added to the culture medium at a final concentration of 1 μg/ml for 45 min, and afterwards, the cells were washed extensively with phosphate-buffered saline (PBS) and cultured for 48 h in the absence of the dye. Dye retained by cells in each well was measured by a fluorescence microplate reader (SPECTRA Max Gemini®, Molecular Devices, Sunnyvale, Calif.) at 505 nm for excitation and 534 nm for emission.

C[S+](C)[O-] [DMSO]
day by which beating cell colonies were present in all 24 independently growing cultures [1]: 12 days | MHC and DHPR-alphal immunoreactive foci [2]: numerous, intense, immunoreactive foci | ANP mRNA level compared to undifferentiated cells [3]: at similar level | OTR expression (protein and mRNA) after treatment ([4]; day 14): increased OTR expression | OT release by induced P19 cells [5]: release OT in their culture medium | reduction of mean aggregate diameter versus untreated counterparts [6]: 1.5 fold | efficiency of cardiac differentiation ([7]; DMSO-induced): ≤ 15%

N[C@@H](Cc1cc(I)c(Oc2ccc(O)c(I)c2)c(I)c1)C(=O)O [T3, triiodothyronine]
optimal effective concentration for cardiomyogenic differentiation of P19 cells ([7]; Rodriguez et al., 1994): 30 nM

[d(CH2)5^1,Tyr(Me)^2,Thr^4,Orn^8,Tyr-NH2^9]-vasotocin [OTA]
effect of OTA on T3-induced cardiac differentiation ([1]; 30 nM T3 + 10^−7 M OTA): abolished cardiac differentiation induced by T3; also recorded: completely inhibits P19 cell differentiation into cardiomyocytes | effect of OTA on DMSO-induced cardiac differentiation (beating cell colonies) ([1]; 10^−7 M OTA + 0.5% DMSO): abolished the cardiogenic action of DMSO; also recorded: completely inhibits P19 cell differentiation into cardiomyocytes | beating cells with OTA in combination with OT ([1]; 10^−7 M OTA + 10^−7 M OT): no beating cells were seen | beating cells with OTA in place of OT ([1]; 10^−7 M OTA alone): no beating cells were seen | effect of OTA on RA-induced cardiac differentiation ([1]; RA 10^−7 M + OTA 10^−7 M): completely inhibits RA-induced cardiac differentiation; also recorded: completely inhibits P19 cell differentiation into cardiomyocytes | effect of OTA on DMSO-induced ANP expression ([3]; DMSO + OTA day 0-4, day 14): not statistically significant | effect of OTA on OT-induced ANP expression ([3]; OT + OTA day 0-4, day 14, p<0.05): prevented OT-induced upregulation of ANP expression | effect of OTA on OT-induced OTR upregulation ([4]; OT 10^−7 M + OTA 10^−7 M, day 14): inhibited OT-induced OTR upregulation | OTR expression (protein and mRNA) after treatment ([4]; day 14): did not upregulate OTR expression by itself | early OTR induction (RT-PCR) [4]: no effect on OTR expression

oxytocin (from UniProt P01178 20-28) (peptide)
production of beating cell colonies (P19 cardiomyocyte differentiation, 24-well plate) [8]: 24

oxytocin [OT]
OT concentration range over which differentiation into beating cardiomyocytes is concentration-dependent ([1]; 4 days of aggregation with different OT concentrations): 10^−6 to 10^−9 M | formation of rhythmically-beating cells ([1]; P19 cell aggregates treated day 0-4 with 10^−7 M OT): induced the formation of rhythmically-beating cells | day by which beating cell colonies were present in all 24 independently growing cultures [1]: 8 days | cardiac differentiation at the OT concentration supplied by serum in culture medium ([1]; final OT concentration of 10^−12 M): not sufficient to induce cardiac differentiation | rhodamine123 retention, OT compared with DMSO [9]: significantly higher after OT than DMSO treatment | MHC and DHPR-alphal immunoreactive foci [2]: numerous, intense, immunoreactive foci | 6-day versus 4-day OT treatment of aggregates (myocyte immunological markers) ([2]; not presented): no difference with the 4-day treatment | ANP mRNA level compared to undifferentiated cells [3]: significantly upregulated | OTR expression (protein and mRNA) after treatment ([4]; day 14): increased OTR expression | OTR mRNA expression versus OT concentration ([4]; differentiated populations at day 14): concentration-dependent | early OTR induction (RT-PCR) [4]: most potent OTR inducer | OT release by induced P19 cells [5]: release OT in their culture medium | reduction of mean aggregate diameter versus untreated counterparts [6]: 1.5 fold
